Experiments:
Assay type in all cases: in vivo
[1] = test system: Heliothis virescens (Tobacco Budworm); experiment: Heliothis virescens egg test on artificial diet; settings: for % Control at 12.5 ppm, Heliothis virescens / % Control at 200 ppm, Heliothis virescens: enantiomer comparison, 4 days incubation
Procedure: Heliothis virescens (Tobacco Budworm): Eggs (0-24 h old) were placed in 24-well microtiter plate on artificial diet and treated with test solutions at an application rate of 200 ppm (concentration in well 18 ppm) by pipetting. After an incubation period of 4 days, samples were checked for egg mortality, larval mortality, and growth regulation. Heliothis virescens (Tobacco Budworm): Eggs (0-24 h old) were placed in 24-well microtiter plate on artificial diet and treated with test solutions at an application rate starting at 200 ppm (concentration in well 18 ppm) by pipetting. After an incubation period of 4 days, samples were checked for egg mortality, larval mortality, and growth regulation.

[2] = test system: Plutella xylostella (Diamond Back Moth); experiment: Plutella xylostella L2 larvae test on artificial diet; settings: enantiomer comparison, 6 days incubation
Procedure: […] After drying, the MTP's were infested with L2 larvae (7-12 per well). After an incubation period of 6 days, samples were checked for larval mortality and growth regulation. […] After drying, the MTPs were infested with L2 larvae (7-12 per well). After an incubation period of 6 days, samples were checked for larval mortality and growth regulation.

[3] = test system: Diabrotica balteata (Corn Root Worm); experiment: Diabrotica balteata L2 larvae test on artificial diet; settings: for % Control at 12.5 ppm, Diabrotica balteata / % Control at 200 ppm, Diabrotica balteata: enantiomer comparison, 5 days incubation; for Control, Diabrotica balteata (Corn root worm): application rate 12 ppm
Procedure: Diabrotica balteata (Corn Root Worm): A 24-well microtiter plate (MTP) with artificial diet was treated with test solutions at an application rate of 200 ppm (concentration in well […]) by pipetting. After drying, the MTP's were infested with L2 larvae (6-10 per well). After an incubation period of 5 days, samples were checked for larval mortality and growth regulation. Diabrotica balteata (Corn Root Worm): A 24-well microtiter plate (MTP) with artificial diet was treated with test solutions at an application rate of 12.5 ppm (concentration in well […]) by pipetting. After drying, the MTP's were infested with L2 larvae (6-10 per well). After an incubation period of 5 days, samples were checked for larval mortality and growth regulation.

[4] = test system: Thrips tabaci (Onion Thrips); experiment: Thrips tabaci sunflower leaf disc spray test; settings: enantiomer comparison, 7 days incubation
Procedure: Thrips tabaci (Onion Thrips): Sunflower leaf discs were placed on agar in a 24-well microtiter plate and sprayed with test solutions at an application rate of 200 ppm. After drying, the leaf discs were infested with a thrip population of mixed ages. After an incubation period of 7 days, samples were checked for mortality. Thrips tabaci (Onion Thrips): Sunflower leaf discs were placed on agar in a 24-well microtiter plate and sprayed with test solutions at an application rate of 50 ppm. After drying, the leaf discs were infested with a thrip population of mixed ages. After an incubation period of 7 days, samples were checked for mortality.

[5] = test system: Tetranychus urticae (Two-Spotted Spider Mite); experiment: Tetranychus urticae bean leaf disc spray test; settings: for % Control at 12.5 ppm, Tetranychus urticae / % Control at 200 ppm, Tetranychus urticae: enantiomer comparison, checked 8 days later; for Control, Tetranychus urticae (Two-spotted spider mite): application rate 12 ppm
Text: […] After drying, the leaf discs are infested with mite populations of mixed ages. 8 days later, discs are checked for egg mortality, larval mortality, and adult mortality. […] After drying, the leaf discs are infested with mite populations of mixed ages. 8 days later, discs are checked for egg mortality, larval mortality, and adult mortality.

[6] = test system: Spodoptera littoralis (Egyptian Cotton Leaf Worm); experiment: Spodoptera littoralis (systemic) test via salad grown on treated agar; settings: 5 days after infestation
Text: Spodoptera littoralis (Systemic) (Egyptian Cotton Leaf Worm) Test compounds were applied by pipette into 24 well plates and mixed with agar. Salad seeds were placed on the agar and the multi well plate is closed by another plate which contains also agar. After 7 days the roots have absorbed the compound and the salad has grown into the lid plate. The salad leafs were now cut off into the lid plate. Spodoptera eggs were pipette through a plastic stencil on a humid gel blotting paper and the plate closed with it. The samples are checked for mortality, repellent effect, feeding behavior, and growth regulation 5 days after infestation.

SMILES: Cc1cc(N2CCC(c3cc(Cl)cc(Cl)c3)(C(F)(F)F)C2)ccc1C(=O)NC1CS(=O)(=O)C1 (single isomer, unassigned) [Compound A5a]
- % Control at 12.5 ppm, Heliothis virescens [1]: 100%
- % Control at 200 ppm, Heliothis virescens [1]: 100%
- % Control at 12.5 ppm, Plutella xylostella [2]: 100%
- % Control at 200 ppm, Plutella xylostella [2]: 100%
- % Control at 12.5 ppm, Diabrotica balteata [3]: 100%
- % Control at 200 ppm, Diabrotica balteata [3]: 100%
- % Control at 200 ppm, Thrips tabaci [4]: 90%
- % Control at 12.5 ppm, Tetranychus urticae [5]: 100%
- % Control at 200 ppm, Tetranychus urticae [5]: 100%
- % Control at 12.5 ppm, Spodoptera littoralis [6]: 100%
- % Control at 200 ppm, Spodoptera littoralis [6]: 100%

SMILES: Cc1cc(N2CCC(c3cc(Cl)cc(Cl)c3)(C(F)(F)F)C2)ccc1C(=O)NC1C[S+]([O-])C1 (centres unmarked) [Compound A1]
- Control, Heliothis virescens (Tobacco budworm) ([1]; application rate 0.8 ppm): 100%
- Control, Diabrotica balteata (Corn root worm) [3]: 80%
- Control, Tetranychus urticae (Two-spotted spider mite) [5]: 100%

SMILES: Cc1cc(N2CCC(c3cc(Cl)cc(Cl)c3)(C(F)(F)F)C2)ccc1C(=O)NC1CS(=O)(=O)C1 (single isomer, unassigned) [Compound A5b]
- % Control at 12.5 ppm, Heliothis virescens [1]: 0%
- % Control at 200 ppm, Heliothis virescens [1]: 100%
- % Control at 12.5 ppm, Plutella xylostella [2]: 0%
- % Control at 200 ppm, Plutella xylostella [2]: 100%
- % Control at 12.5 ppm, Diabrotica balteata [3]: 0%
- % Control at 200 ppm, Diabrotica balteata [3]: 0%
- % Control at 200 ppm, Thrips tabaci [4]: 0%
- % Control at 12.5 ppm, Tetranychus urticae [5]: 0%
- % Control at 200 ppm, Tetranychus urticae [5]: 0%
- % Control at 12.5 ppm, Spodoptera littoralis [6]: 0%
- % Control at 200 ppm, Spodoptera littoralis [6]: 100%

SMILES: Cc1cc(N2CCC(c3cc(Cl)cc(Cl)c3)(C(F)(F)F)C2)ccc1C(=O)NCc1ccccn1 (centres unmarked) [Compound 1-4 of WO08128711, reference compound]
- Control, Heliothis virescens (Tobacco budworm) ([1]; application rate 0.8 ppm): 0%
- Control, Heliothis virescens (Tobacco budworm) ([1]; application rate 3 ppm): 50%
- Control, Diabrotica balteata (Corn root worm) [3]: 0%
- Control, Tetranychus urticae (Two-spotted spider mite) [5]: 0%

SMILES: Cc1cc(N2CCC(c3cc(Cl)cc(Cl)c3)(C(F)(F)F)C2)ccc1C(=O)NC1CSC1 (centres unmarked) [Compound A4]
- Control, Heliothis virescens (Tobacco budworm) ([1]; application rate 3 ppm): 80%
- Control, Diabrotica balteata (Corn root worm) [3]: 100%
- Control, Tetranychus urticae (Two-spotted spider mite) [5]: 100%

SMILES: Cc1cc(N2CCC(c3cc(Cl)cc(Cl)c3)(C(F)(F)F)C2)ccc1C(=O)NC1CS(=O)(=O)C1 (centres unmarked) [Compound A5]
- Control, Heliothis virescens (Tobacco budworm) ([1]; application rate 3 ppm): 80%
- Control, Diabrotica balteata (Corn root worm) [3]: 100%
- Control, Tetranychus urticae (Two-spotted spider mite) [5]: 100%

From US8957058B2, “Insecticidal pyrrolidin-yl-aryl-carboxamides” (Syngenta Participations AG, priority 2010, dated 2015)
